Reference: PubChem BioAssay (NCI)
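1) Cells in 96-well plates. 2) Compound, 48 h, 5 concentrations. 3) Linear interpolation between surrounding doses. 4) Unreached endpoint = highest concentration. GI50 = concentration required for 50% inhibition of growth. TGI is the concentration that stops growth completely.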

Assays:
Test in all cases: NCI-60 cell line screen, 48 h
TK-10 renal = system: TK-10 renal
MCF7 breast = system: MCF7 breast
M14 melanoma = system: M14 melanoma
HS 578T breast = system: HS 578T breast
CAKI-1 renal = system: CAKI-1 renal
UO-31 renal = system: UO-31 renal
MOLT-4 leukemia = system: MOLT-4 leukemia
HCC-2998 colon = system: HCC-2998 colon
HOP-62 NSCLC = system: HOP-62 NSCLC
HCT-15 colon = system: HCT-15 colon
A549 NSCLC = system: A549 NSCLC
NCI-H226 lung = system: NCI-H226 lung
MALME-3M melanoma = system: MALME-3M melanoma
SN12C renal = system: SN12C renal
UACC-257 melanoma = system: UACC-257 melanoma
EKVX NSCLC = system: EKVX NSCLC
K-562 leukemia = system: K-562 leukemia
MDA-MB-435 = system: MDA-MB-435
OVCAR-5 ovarian = system: OVCAR-5 ovarian
SNB-19 CNS = system: SNB-19 CNS
KM12 colon = system: KM12 colon
OVCAR-8 ovarian = system: OVCAR-8 ovarian
SNB-75 CNS = system: SNB-75 CNS
CCRF-CEM leukemia = system: CCRF-CEM leukemia

In the case of CC(=O)/C=C/c1ccc(Nc2c3ccccc3nc3occ(Cl)c23)cc1, the GI50 (TK-10 renal) is reported as 3.87 µM, the TGI (TK-10 renal) is reported as 24.8 µM and the GI50 (MCF7 breast) is reported as 1.07 µM. For the same molecule, the TGI (MCF7 breast) was 14.3 µM, the GI50 (M14 melanoma) was 4.49 µM and the TGI (M14 melanoma) was 18.2 µM. It also gave a GI50 (HS 578T breast) of 5.75 µM, a TGI (HS 578T breast) greater than 100 µM and a GI50 (CAKI-1 renal) of 0.159 µM. The TGI (CAKI-1 renal) was 1.07 µM, the GI50 (UO-31 renal) was 14.2 µM and the TGI (UO-31 renal) was greater than 100 µM. For the same molecule, the GI50 (MOLT-4 leukemia) was 2.69 µM, the TGI (MOLT-4 leukemia) was 13.3 µM and the GI50 (HCC-2998 colon) was 2.93 µM. The TGI (HCC-2998 colon) was 14.6 µM, the GI50 (HOP-62 NSCLC) was 19.5 µM and the TGI (HOP-62 NSCLC) was 61.3 µM. For the same molecule, the GI50 (HCT-15 colon) was 2.09 µM, the TGI (HCT-15 colon) was 11.7 µM and the GI50 (A549 NSCLC) was 4.04 µM. For the same molecule, the TGI (A549 NSCLC) was 32.5 µM, the GI50 (NCI-H226 lung) was 4.87 µM and the TGI (NCI-H226 lung) was 21.7 µM. For the same molecule, the GI50 (MALME-3M melanoma) was 6.48 µM, the TGI (MALME-3M melanoma) was 24.9 µM and the GI50 (SN12C renal) was 3.29 µM. For the same molecule, the TGI (SN12C renal) was 14.3 µM, the GI50 (UACC-257 melanoma) was 1.24 µM and the TGI (UACC-257 melanoma) was 5.59 µM. The GI50 (EKVX NSCLC) was 27.2 µM, the TGI (EKVX NSCLC) was 78.2 µM and the GI50 (K-562 leukemia) was 2.45 µM. It also gave a TGI (K-562 leukemia) of 13.3 µM, a GI50 (MDA-MB-435) of 2.03 µM and a TGI (MDA-MB-435) of 5.95 µM. The GI50 (OVCAR-5 ovarian) was 13.9 µM, the TGI (OVCAR-5 ovarian) was 30.7 µM and the GI50 (SNB-19 CNS) was 8.71 µM. For the same molecule, the TGI (SNB-19 CNS) was 30.2 µM, the GI50 (KM12 colon) was greater than 100 µM and the TGI (KM12 colon) was greater than 100 µM. For the same molecule, the GI50 (OVCAR-8 ovarian) was 2.03 µM, the TGI (OVCAR-8 ovarian) was 4.64 µM and the GI50 (SNB-75 CNS) was 18.3 µM. It also gave a TGI (SNB-75 CNS) of 59.4 µM, a GI50 (CCRF-CEM leukemia) of 2.96 µM and a TGI (CCRF-CEM leukemia) of 19.7 µM.
